# Where two headings read alike, the source gives them in different places.
# Experiments:
# [1] = system: E. coli AG100tet (AcrAB overexpressing); test: MIC, broth microdilution; format: cell-based, Escherichia coli; details: Escherichia coli
# [2] = system: E. coli AG100; test: EtBr accumulation by real-time fluorometry
# [3] = system: E. coli AG100A; test: microbe, parasite or virus in culture; format: cell-based, Escherichia coli; details: Escherichia coli, AG100A, read-out: MIC without efflux inhibitor
# Method: The minimum inhibitory concentrations (MICs) were determined using the broth microdilution method according to the CLSI guidelines ([Clinical and Laboratory Standards Institute, 2014]). […] Two-fold serial dilutions of the compounds were made to achieve the following concentrations: 320 µM–40 µM. The MICs were determined as the lowest concentration at which no visible growth was observed after 18 h of incubation at 37 °C. The assays were performed in triplicate and the MIC value was given as result of at least two concordant values.
# [4] = system: E. coli AG100; test: Checkerboard synergy assay (MIC of antibiotics/EtBr with efflux inhibitor); format: cell-based, Escherichia coli; details: Escherichia coli
# Method: (§1) The assays were performed in triplicate and the MIC value was given as result of at least two concordant values.
# [5] = system: E. coli AG100tet; test: microbe, parasite or virus in culture; format: cell-based, Escherichia coli; details: Escherichia coli, AG100TET, read-out: MIC without efflux inhibitor, AG100tet; inhibitor 0 μM
# Method: as §1
# [6] = system: E. coli AG100A (AcrAB pump-deficient); test: MIC, broth microdilution; format: cell-based, Escherichia coli; details: Escherichia coli
# [7] = system: E. coli AG100tet; test: EtBr accumulation by real-time fluorometry; details: AG100tet
# [8] = system: E. coli K-12 AG100 (wild-type); test: MIC, broth microdilution; format: cell-based; details: Escherichia coli
# [9] = system: E. coli AG100A; details: AG100A
# [10] = system: E. coli AG100; test: Membrane potential assay (BacLight, DiOC2(3)); details: positive control 156 µM (half MIC)
smiles,measurement,setting,value
"CC[n+]1c(-c2ccccc2)c2cc(N)ccc2c2ccc(N)cc21 [EtBr, ethidium bromide]",MIC,[1],512 µg/mL
same,equilibrium concentration (influx equals efflux),[2]; AG100,1 µg/mL
same,EtBr fluorescence,"[2]; EtBr 0.5 µg/ml, cycle 1",3.237
same,EtBr fluorescence,"[2]; EtBr 0.5 µg/ml, cycle 7",3.883
same,EtBr fluorescence,"[2]; EtBr 0.5 µg/ml, cycle 8",4.039
same,EtBr fluorescence,"[2]; EtBr 0.5 µg/ml, cycle 9",4.222
same,EtBr fluorescence,"[2]; EtBr 0.5 µg/ml, cycle 10",4.226
same,EtBr fluorescence,"[2]; EtBr 0.5 µg/ml, cycle 11",4.3568
same,EtBr fluorescence,"[2]; EtBr 0.5 µg/ml, cycle 12",4.419
same,EtBr fluorescence,"[2]; EtBr 0.5 µg/ml, cycle 13",4.6831
same,EtBr fluorescence,"[2]; EtBr 0.5 µg/ml, cycle 14",4.514
same,EtBr fluorescence,"[2]; EtBr 0.5 µg/ml, cycle 15",4.795
same,EtBr fluorescence,"[2]; EtBr 0.5 µg/ml, cycle 16",4.926
same,EtBr fluorescence,"[2]; EtBr 0.5 µg/ml, cycle 17",4.878
same,EtBr fluorescence,"[2]; EtBr 0.5 µg/ml, cycle 18",4.912
same,EtBr fluorescence,"[2]; EtBr 0.5 µg/ml, cycle 19",5.122
same,EtBr fluorescence,"[2]; EtBr 0.5 µg/ml, cycle 20",5.073
same,EtBr fluorescence,"[2]; EtBr 0.5 µg/ml, cycle 21",5.194
same,EtBr fluorescence,"[2]; EtBr 0.5 µg/ml, cycle 22",5.233
same,EtBr fluorescence,"[2]; EtBr 0.5 µg/ml, cycle 23",5.309
same,EtBr fluorescence,"[2]; EtBr 0.5 µg/ml, cycle 24",5.461
same,EtBr fluorescence,"[2]; EtBr 0.5 µg/ml, cycle 25",5.593
same,EtBr fluorescence,"[2]; EtBr 0.5 µg/ml, cycle 26",5.584
same,EtBr fluorescence,"[2]; EtBr 0.5 µg/ml, cycle 27",5.69
same,EtBr fluorescence,"[2]; EtBr 0.5 µg/ml, cycle 28",5.64
same,EtBr fluorescence,"[2]; EtBr 0.5 µg/ml, cycle 29",5.6965
same,EtBr fluorescence,"[2]; EtBr 0.5 µg/ml, cycle 30",5.739
same,EtBr fluorescence,"[2]; EtBr 1 µg/ml, cycle 1",4.697
same,EtBr fluorescence,"[2]; EtBr 1 µg/ml, cycle 2",4.852
same,EtBr fluorescence,"[2]; EtBr 1 µg/ml, cycle 3",5.005
same,EtBr fluorescence,"[2]; EtBr 1 µg/ml, cycle 4",5.143
same,EtBr fluorescence,"[2]; EtBr 1 µg/ml, cycle 5",5.505
same,EtBr fluorescence,"[2]; EtBr 1 µg/ml, cycle 6",5.767
same,EtBr fluorescence,"[2]; EtBr 1 µg/ml, cycle 7",5.841
same,EtBr fluorescence,"[2]; EtBr 1 µg/ml, cycle 8",6.0562
same,EtBr fluorescence,"[2]; EtBr 1 µg/ml, cycle 9",6.088
same,EtBr fluorescence,"[2]; EtBr 1 µg/ml, cycle 10",6.339
same,EtBr fluorescence,"[2]; EtBr 1 µg/ml, cycle 11",6.446
same,EtBr fluorescence,"[2]; EtBr 1 µg/ml, cycle 12",6.666
same,EtBr fluorescence,"[2]; EtBr 1 µg/ml, cycle 13",6.748
same,EtBr fluorescence,"[2]; EtBr 1 µg/ml, cycle 14",6.978
same,EtBr fluorescence,"[2]; EtBr 1 µg/ml, cycle 15",7.028
same,EtBr fluorescence,"[2]; EtBr 1 µg/ml, cycle 16",7.227
same,EtBr fluorescence,"[2]; EtBr 1 µg/ml, cycle 17",7.381
same,EtBr fluorescence,"[2]; EtBr 1 µg/ml, cycle 18",7.326
same,EtBr fluorescence,"[2]; EtBr 1 µg/ml, cycle 19",7.434
same,EtBr fluorescence,"[2]; EtBr 1 µg/ml, cycle 20",7.666
same,EtBr fluorescence,"[2]; EtBr 1 µg/ml, cycle 21",7.737
same,EtBr fluorescence,"[2]; EtBr 1 µg/ml, cycle 22",7.695
same,EtBr fluorescence,"[2]; EtBr 1 µg/ml, cycle 23",7.798
same,EtBr fluorescence,"[2]; EtBr 1 µg/ml, cycle 24",7.86
same,EtBr fluorescence,"[2]; EtBr 1 µg/ml, cycle 25",7.955
same,EtBr fluorescence,"[2]; EtBr 1 µg/ml, cycle 26",7.794
same,EtBr fluorescence,"[2]; EtBr 1 µg/ml, cycle 27",7.948
same,EtBr fluorescence,"[2]; EtBr 1 µg/ml, cycle 28",8.04
same,EtBr fluorescence,"[2]; EtBr 1 µg/ml, cycle 29",8.111
same,EtBr fluorescence,"[2]; EtBr 1 µg/ml, cycle 30",8.205
same,EtBr fluorescence,"[2]; EtBr 2 µg/ml, cycle 1",9.029
same,EtBr fluorescence,"[2]; EtBr 2 µg/ml, cycle 2",9.296
same,EtBr fluorescence,"[2]; EtBr 2 µg/ml, cycle 3",9.71
same,EtBr fluorescence,"[2]; EtBr 2 µg/ml, cycle 4",9.991
same,EtBr fluorescence,"[2]; EtBr 2 µg/ml, cycle 5",10.2954
same,EtBr fluorescence,"[2]; EtBr 2 µg/ml, cycle 12",12.653
same,EtBr fluorescence,"[2]; EtBr 2 µg/ml, cycle 13",13.0282
same,EtBr fluorescence,"[2]; EtBr 2 µg/ml, cycle 14",13.3381
same,EtBr fluorescence,"[2]; EtBr 2 µg/ml, cycle 15",13.5191
same,EtBr fluorescence,"[2]; EtBr 2 µg/ml, cycle 16",13.6733
same,EtBr fluorescence,"[2]; EtBr 2 µg/ml, cycle 17",14.0513
same,EtBr fluorescence,"[2]; EtBr 2 µg/ml, cycle 18",14.1241
same,EtBr fluorescence,"[2]; EtBr 2 µg/ml, cycle 19",14.4449
same,EtBr fluorescence,"[2]; EtBr 2 µg/ml, cycle 20",14.643
same,EtBr fluorescence,"[2]; EtBr 2 µg/ml, cycle 21",14.9287
same,EtBr fluorescence,"[2]; EtBr 2 µg/ml, cycle 22",15.1966
same,EtBr fluorescence,"[2]; EtBr 2 µg/ml, cycle 23",15.196
same,EtBr fluorescence,"[2]; EtBr 2 µg/ml, cycle 24",15.3241
same,EtBr fluorescence,"[2]; EtBr 2 µg/ml, cycle 25",15.6489
same,EtBr fluorescence,"[2]; EtBr 2 µg/ml, cycle 26",15.801
same,EtBr fluorescence,"[2]; EtBr 2 µg/ml, cycle 27",15.8722
same,EtBr fluorescence,"[2]; EtBr 2 µg/ml, cycle 28",16.0341
same,EtBr fluorescence,"[2]; EtBr 2 µg/ml, cycle 29",16.3924
same,EtBr fluorescence,"[2]; EtBr 2 µg/ml, cycle 30",16.548
same,MIC,[3],3.12 µg/mL
same,MIC,"[4]; AG100, read-out: MIC without efflux inhibitor",200 µg/mL
same,MIC,[5],512 µg/mL
same,MIC,[6],3.12 µg/mL
same,equilibrium concentration (influx equals efflux),[7],2 µg/mL
same,MIC,[8],200 µg/mL
same,equilibrium concentration (influx equals efflux),[9],0.25 µg/mL
"Cc1onc(-c2ccccc2)c1C(=O)N[C@@H]1C(=O)N2[C@@H]1SC(C)(C)[C@@H]2C(=O)O [OXA, oxacillin]",MIC,[1],> 2050 µg/mL
same,MIC,[3],2 µg/mL
same,MIC,"[4]; AG100, AG100, inhibitor 0 μM, read-out: MIC without efflux inhibitor",512 µg/mL
same,MIC,[5],> 2050 µg/mL
same,MIC,[6],2 µg/mL
same,MIC,"[8]; E. coli AG100 wild-type, read-out: MIC",512 µg/mL
"CN(C)[C@@H]1C(O)=C(C(N)=O)C(=O)[C@@]2(O)C(O)=C3C(=O)c4c(O)cccc4[C@@](C)(O)[C@H]3C[C@@H]12 [TET, tetracycline]",MIC,[1],64 µg/mL
same,MIC,[3],0.5 µg/mL
same,MIC,[5],64 µg/mL
same,MIC,[6],0.5 µg/mL
"N#CC(C#N)=NNc1cccc(Cl)c1 [CCCP, carbonyl cyanide-m-chlorophenylhydrazone]",percentage of depolarized cells (membrane potential collapse),[10],over 95%
